Target mRNA inhibition data for 85 sequences are collected here from the OligoGym collection.

Several values for one entry are separate records, joined by “and”; a condition that tells them apart may be missing. Equal values may be shown once. After the bases stand the sugars from the 5' end (letter, count) and the backbone: PS all phosphorothioate, else s phosphorothioate and o phosphodiester by linkage. Methylation of C is not given here. e = 2'-O-(2-methoxyethyl) (MOE); k = constrained ethyl (cEt); d = 2'-deoxy (DNA)

The target of the data set is IRF4. Particulars: ASO.

Consider GCTCACTGCTCACTAA (sugars k3 d10 k3, PS), for which the target mRNA inhibition (SK-MEL-28, 4 µM) was determined as 33%.
On to CAGATTGAATCCATAT (sugars k3 d10 k3, PS), for which the target mRNA inhibition (MM.1R, 1 µM) came to 20%.
Still for that read-out and setting: for CACATGATAAGGCACT (sugars k3 d10 k3, PS) the value was 21%.
With CAATTTATGCCATGGA (sugars k3 d10 k3, PS), the target mRNA inhibition (MM.1R, 0.074 µM) is -4%; the target mRNA inhibition (MM.1R, 0.222 µM) came to 5%; the target mRNA inhibition (MM.1R, 0.666 µM) came to 9%; the target mRNA inhibition (MM.1R, 2 µM) was 40%; the target mRNA inhibition (SK-MEL-28, 4 µM) came to 62%.
With GTCCGCCCCGCGCGGT (sugars k3 d10 k3, PS), for the setting “MM.1R, 1 µM”, the target mRNA inhibition turned out to be 3%.
GCATAGCATTATCTAC (sugars k3 d10 k3, PS): the target mRNA inhibition (SK-MEL-28, 4 µM) was found to be 51%.
On the same count and under the same terms, for CTGAGATAAGAAGCAC (sugars k3 d10 k3, PS) the value was 37%; for ACTTAACCCACATCAC (sugars k3 d10 k3, PS), -22%; for CCACAAGAAAGAGACC (sugars k3 d10 k3, PS), -9%.
Take AGCAGTGATGTCAGGT (sugars k3 d10 k3, PS): the target mRNA inhibition reads like this: (MM.1R, 0.0625 µM) 1%; (MM.1R, 0.25 µM) 23%; (MM.1R, 1 µM) 84% and 68%; (MM.1R, 4 µM) 92%.
Turning to TACATGGCAGTGGAGC (sugars k3 d10 k3, PS), the target mRNA inhibition (SK-MEL-28, 4 µM) came out at 71%.
The same measure, in the same setting: the same measure for GACTTAAGCTAAACTC (sugars k3 d10 k3, PS): 58%.
With “GCATTTTATCATCCGA (sugars kkddddddddddkeke, PS)”, under “MM.1R, 1 µM”, the target mRNA inhibition came out at 39%.
For TCACGCAGTGCACCTG (sugars k3 d10 k3, PS), the target mRNA inhibition (SK-MEL-28, 4 µM) was 46%.
In the case of “GTGTCTAAAGTCCCAT (sugars kddddddddddkekek, PS)”, the target mRNA inhibition (MM.1R, 1 µM) is 34% and 23%.
For TTAACCATTACTTAGA (sugars k3 d10 k3, PS), the target mRNA inhibition (SK-MEL-28, 4 µM) was found to be 45%.
Still for that read-out and setting: the same measure for AGCTACGCAATCTTCT (sugars k3 d10 k3, PS): 47%; for TATTTATGCCCTCGCT (sugars k3 d10 k3, PS): 26%.
Same read-out and setting: the same measure for GACTAACAGGGAGACT (sugars k3 d10 k3, PS): -9%; for TTTTACCTGGTATTGC (sugars k3 d10 k3, PS): -2%.
For the sequence GTAGGTAAGATCTCCA (sugars k3 d10 k3, PS), under “MM.1R, 1 µM”, the target mRNA inhibition was 22%.
Regarding AAACAGGAACTGACCT (sugars k3 d10 k3, PS), where the note is “SK-MEL-28, 4 µM”, the target mRNA inhibition turned out to be 20%.
Regarding TTAGAGAGGAGAATTT (sugars k3 d10 k3, PS), the target mRNA inhibition (SK-MEL-28, 4 µM) was 35%.
The same measure, in the same setting: the same measure for ATGAGAACTTTGATGT (sugars k3 d10 k3, PS): 15%; for TATACCAACGACAGCA (sugars k3 d10 k3, PS): 49%.
On the same count and under the same terms, for TAAAGAGCGCATTTCA (sugars k3 d10 k3, PS) the value was 41%; for TCACACTGCCGTGATC (sugars k3 d10 k3, PS), 22%.
Regarding CACTCTTACTCCGCTG (sugars k3 d10 k3, PS), the target mRNA inhibition (MM.1R, 1 µM) was -12%.
Consider ACACATCACTTGGTCA (sugars k3 d10 k3, PS), for which the target mRNA inhibition (SK-MEL-28, 4 µM) was determined as 78%.
For ATCACCGAACACACCA (sugars k3 d10 k3, PS), for the setting “MM.1R, 1 µM”, the target mRNA inhibition was -12%.
Consider TGTGAACCTGCTGGGC (sugars k3 d10 k3, PS), for which the target mRNA inhibition (SK-MEL-28, 4 µM) amounted to 2%.
On the same count and under the same terms, for TTGCATAGGCATCCTT (sugars k3 d10 k3, PS) the value was 47%; for CAAACCCTACTGGGTA (sugars k3 d10 k3, PS), 32%.
For ATTACTCTTAGGCACA (sugars k3 d10 k3, PS), the target mRNA inhibition (MM.1R, 1 µM) was 30%.
With CTACAGGCACGGCTTC (sugars k3 d10 k3, PS), the target mRNA inhibition (SK-MEL-28, 4 µM) turned out to be 52%.
In the case of CCCTACCTTTTTTGGC (sugars k3 d10 k3, PS), where the note is “MM.1R, 1 µM”, the target mRNA inhibition is -7%.
GTCTGGCTAGCAGAGG (sugars k4 d8 k4, PS): under “SK-MEL-28, 4 µM”, the target mRNA inhibition came out at 9%.
On the same count and under the same terms, for CTGTATCATGCATACC (sugars k3 d10 k3, PS) the value was 61%; for GTAGTCCTGCTTGCCC (sugars k4 d8 k4, PS), 11%.
On to “AAGCTTGATAAAGGCT (sugars kkddddddddddkeke, PS)”, for which the target mRNA inhibition (MM.1R, 1 µM) is -18%.
Take ATGAACCCTAAGTTTA (sugars k3 d10 k3, PS): the target mRNA inhibition (MM.1R, 1 µM) is -4%.
Turning to AGTTTGTGAAGCATCC (sugars k3 d10 k3, PS), under “SK-MEL-28, 4 µM”, the target mRNA inhibition is 69%.
Still for that read-out and setting: for GGCACGGCTTCAGTCA (sugars k3 d10 k3, PS) the value was 75%.
Take TAGGACTAAGGACAGC (sugars k3 d10 k3, PS): the target mRNA inhibition (MM.1R, 1 µM) was -5%.
On to GGAGATATTAATTACT (sugars k3 d10 k3, PS), for which the target mRNA inhibition (SK-MEL-28, 4 µM) was 50%.
Still for that read-out and setting: the same measure for CTACTATTGTGGAAAA (sugars k3 d10 k3, PS): 3%.
On to “TGTGATAGCTGAGCTG (sugars kddddddddddkekek, PS)”, for which, for the setting “MM.1R, 1 µM”, the target mRNA inhibition was -2%.
As for GTCCGACGCACCGCGG (sugars k3 d10 k3, PS), the target mRNA inhibition (SK-MEL-28, 4 µM) was found to be 18%.
Same read-out and setting: the same measure for ACCAGAACTAATGTCC (sugars k3 d10 k3, PS): 32%.
Same read-out and setting: the same measure for GCCAAGTAATTTTAAG (sugars k3 d10 k3, PS): 35%; for TACCCTGGATCACTCA (sugars k3 d10 k3, PS): 65%.
For the sequence GTGTGCTTGCCAAGCC (sugars k3 d10 k3, PS), the target mRNA inhibition by setting is: (MM.1R, 0.0625 µM) 35%; (MM.1R, 0.25 µM) 23%; (MM.1R, 1 µM) 66% and 63%; (MM.1R, 4 µM) 87%.
As for CCCACGGACGGAGGCG (sugars k3 d10 k3, PS), for the setting “SK-MEL-28, 4 µM”, the target mRNA inhibition is -9%.
As to TAGTATGAGAAACGGC (sugars k3 d10 k3, PS), the target mRNA inhibition reads like this: (H929, 0.04 µM) 33% and 47%; (KMS11, 0.2 µM) 65% and 85%; (SK-MEL-28, 4 µM) 78%.
For the sequence ATGAAAGTGTGTGCAA (sugars k3 d10 k3, PS), the target mRNA inhibition (SK-MEL-28, 4 µM) stood at 64%.
The same measure, in the same setting: the same measure for ATTTCATAGCTAGTTC (sugars k3 d10 k3, PS): 44%.
With CCGTGATCTGAGACTA (sugars k3 d10 k3, PS), the target mRNA inhibition (MM.1R, 0.0625 µM) was 0%; the target mRNA inhibition (MM.1R, 0.25 µM) was found to be 13%; the target mRNA inhibition (MM.1R, 1 µM) was 45% and 30%; the target mRNA inhibition (MM.1R, 4 µM) came to 71%.
Take CCAAATGACTTAGTCA (sugars k3 d10 k3, PS): the target mRNA inhibition (SK-MEL-28, 4 µM) was 51%.
Take “GCATTTTATCATCCGA (sugars k2 d9 e3 k2, PS)”: the target mRNA inhibition (MM.1R, 1 µM) is 38%.
With AAAGAGGGTCACAGGT (sugars k3 d10 k3, PS), the target mRNA inhibition (SK-MEL-28, 4 µM) turned out to be 34%.
Regarding ATAGAATTAGGTGCTT (sugars k3 d10 k3, PS), the target mRNA inhibition is, setting by setting: (MM.1R, 0.0625 µM) -5%; (MM.1R, 0.074 µM) -1%; (MM.1R, 0.222 µM) 33%; (MM.1R, 0.25 µM) 6%; (MM.1R, 0.666 µM) 11%; (MM.1R, 1 µM) 25%. In addition, the target mRNA inhibition was 8% (MM.1R, 2 µM); 56% (MM.1R, 4 µM); 64% (SK-MEL-28, 4 µM).
Consider ATGGCAAAAGACCAAT (sugars k3 d10 k3, PS), for which the target mRNA inhibition (MM.1R, 1 µM) is -5%.
Turning to CTGTATTTATGCCCTC (sugars k3 d10 k3, PS), the target mRNA inhibition (SK-MEL-28, 4 µM) is 60%.
Same read-out and setting: the same measure for CCCCGGAAGAAGGCAC (sugars k3 d10 k3, PS): 36%.
Consider CCACAACTCTCGCCTC (sugars k3 d10 k3, PS), for which the target mRNA inhibition (MM.1R, 1 µM) was -9%.
As to GAGGGTCAAAAAGATG (sugars k3 d10 k3, PS), the target mRNA inhibition (SK-MEL-28, 4 µM) was 33%.
On the same count and under the same terms, for TCTACAGAACACAAGA (sugars k3 d10 k3, PS) the value was -8%.
In the case of GGCCGATCATCAACTT (sugars k3 d10 k3, PS), the target mRNA inhibition (SK-MEL-28, 4 µM) was determined as 7%.
For the sequence “GTTGGCTGGTCTTTGT (sugars kdddddddddkekeke, PS)”, the target mRNA inhibition (MM.1R, 1 µM) came out at 18%.
For the sequence “GGCACATCAATGTTTT (sugars k2 d9 e3 k2, PS)”, the target mRNA inhibition (MM.1R, 1 µM) is 22% and 36%.
The same measure, in the same setting: for TAACTTCTCCTGTGCA (sugars k3 d10 k3, PS) the value was 15%.
Turning to GGGTCCTACCTGCTGG (sugars k3 d10 k3, PS), the target mRNA inhibition (SK-MEL-28, 4 µM) was found to be 36%.
Same read-out and setting: for CTCCAAAGCATAGAGT (sugars k3 d10 k3, PS) the value was 23%.
On the same count and under the same terms, the same measure for TCATAGCTAGTTCATT (sugars k3 d10 k3, PS): 52%.
In the case of “TGTGCTTGCCAAGCCT (sugars kkdddddddddekeke, PS)”, the target mRNA inhibition (MM.1R, 1 µM) is 21% and 1%.
In the case of GCTCATGCCGAACTCT (sugars k3 d10 k3, PS), where the note is “SK-MEL-28, 4 µM”, the target mRNA inhibition was 19%.
In the case of “AGCATTTTATCATCCG (sugars kkdddddddddkekek, PS)”, the target mRNA inhibition (MM.1R, 1 µM) came out at 39%.
As to GCTTCTTCAATTTACA (sugars k3 d10 k3, PS), for the setting “SK-MEL-28, 4 µM”, the target mRNA inhibition came to 45%.
Take CGAGGTGATTCTCGGG (sugars k3 d10 k3, PS): where the note is “MM.1R, 1 µM”, the target mRNA inhibition was determined as 15%.
With GTAAACTTGGCTGTGG (sugars k3 d10 k3, PS), the target mRNA inhibition (SK-MEL-28, 4 µM) came out at 18%.
Regarding CAGGGAGCGGCCGTGG (sugars k3 d10 k3, PS), the target mRNA inhibition (SK-MEL-28, 4 µM) stood at 17%.
The same measure, in the same setting: the same measure for GAGGAAGCCGTTCCTT (sugars k3 d10 k3, PS): 51%.
Still for that read-out and setting: for TCCGGCTTGTCGATGC (sugars k3 d10 k3, PS) the value was 41%.
For the sequence “TGTTACCGATGCTTCA (sugars kdddddddddkekeke, PS)”, where the note is “MM.1R, 1 µM”, the target mRNA inhibition was 10% and 13%.
Consider TTTAAGGCCCTGTCAA (sugars k3 d10 k3, PS), for which, where the note is “SK-MEL-28, 4 µM”, the target mRNA inhibition is -17%.
